Experimental data taken from ChEMBL document CHEMBL1212743, “Absorption, pharmacokinetics, and safety of triclosan after dermal administration” (Antimicrob Agents Chemother, 2010).

Key:
Type in all cases: ADME, organism-based
Homo sapiens = assay: Time to reach maximum urine excretion rate in percutaneously dosed healthy human at 1166 mg; conditions: in vivo, topical_or_ocular
[1] = Apparent half-life of the terminal disposition phase half life in percutaneously dosed healthy human at 1166 mg; conditions: in vivo, topical or ocular, read-out: t1/2 lambda z (converted)
[2] = Absorption in percutaneously dosed healthy human at 1166 mg; conditions: in vivo, topical or ocular, read-out: Activity
[3] = Excretion in percutaneously dosed healthy human urine at 1166 mg up to 48 hrs; conditions: topical or ocular, read-out: Activity

## Oc1cc(Cl)ccc1Oc1ccc(Cl)cc1Cl [TRICLOSAN]
Homo sapiens
  Time: 11 h
[1]
  half-life: 10.8 h
[2]
  Fa: 5.9%
[3]
  dose excreted at 48 h: 4.9%
